How the values were obtained:
[1] = test system: cultured human mast cells (CHMC); experiment: CHMC low cell density IgE activation: tryptase assay; type: cell-based
Outline: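 Supernatant tryptase activity, assayed with substrate for 30 min at room temperature, served as the degranulation measure. Mast cells (1000-1500 per well depending on donor) sat 1 hr at 37° C in MT before a 30 min anti-IgE challenge at 37° C.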

[2] = test system: cultured human mast cells (CHMC); experiment: CHMC low cell density IgE activation: LTC4 assay; type: cell-based; conditions: anti-IgE activation, LTC4 release
Procedure: Pellet CHMC cells (980 rpm, 10 min) and resuspend in pre-warmed MT. Add 65 ul of cells to each 96-well plate. Depending on the degranulation activity for each particular CHMC donor, load 1000-1500 cells/well. Mix four times followed by a 1 hr incubation at 37° C. […] Stimulate cells by adding 25 ul of 6× anti-IgE solution to the appropriate plates. Add 25 ul MT to un-stimulated control wells. Mix twice following addition of the anti-IgE. Incubate at 37° C. for 30 minutes. […] Spin plates at 1000 rpm for 10 min to pellet cells. Transfer 25 ul of supernatant to a 96-well black bottom plate and add 100 ul of freshly diluted tryptase substrate solution to each well. Incubate plates at room temperature for 30 min.
Leukotriene C4 (LTC4) is also quantified using an ELISA kit on appropriately diluted supernatant samples (determined empirically for each donor cell population so that the sample measurement falls within the standard curve) following the supplier's instructions.

[3] = test system: cultured human mast cells (CHMC); experiment: CHMC low cell density ionomycin activation: tryptase assay; type: cell-based
Jurkat cells = experiment: Jurkat (T-cell) toxicity, light scatter; type: cell-based, human; conditions: read-out: Toxicity Jurkat Light Scat.
Procedure: Dilute Jurkat cells to 2×10^5 cells/ml in complete RPMI (10% heat-inactivated fetal bovine serum) media and incubate at 37° C., 5% CO2 for 18 hours. Add 65 ul cells at 7.7×10^5 cells/ml to a 96-well V-bottom plate (TC-treated, Costar) containing 65 ul 2× compound (final vehicle concentration is 0.5% DMSO, 1.5% MeOH). Mix, incubate plates for 18-24 hr at 37° C., 5% CO2. Toxicity was assessed by flow cytometric analysis of cellular light scatter

B-cell line BJAB = experiment: BJAB (B-cell) toxicity, light scatter; type: cell-based; conditions: read-out: Toxicity BJAB Light Scat.
Procedure: The B-cell line BJAB was cultured in log phase in RPMI1640+10% heat-inactivated fetal bovine serum, 1× L-glutamine, 1× penicillin, 1× […] and 1× beta-mercaptoethanol at 37° C., 5% CO2. First, BJABs were harvested, spun and resuspended in culture medium to a concentration of 7.7×10^5 cells/mL. 65 uL cells were mixed with 65 uL compound, in duplicate and in the presence of 0.1% DMSO in a V-bottomed 96-well tissue culture plate. Cells were incubated with compound at various dilutions at 37° C., 5% CO2. Toxicity was assessed by flow cytometric analysis of cellular light scatter.

[4] = test system: Human Jurkat T-cells (clone N); experiment: Jurkat T-cell activation (anti-TCR, CD69 upregulation); type: cell-based
Outline: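 Readout is CD69 upregulation by flow cytometry (anti-CD69-APC, 20 min at 4 °C) after 20 h anti-TCR (C305, 500 ng/ml) stimulation at 37 °C.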

[5] = test system: basophil cells (human peripheral blood); experiment: Basophil anti-IgE activation: histamine release assay; type: cell-based; conditions: basophils, anti-IgE activation, histamine release; read-out: Basophils anti-IgE Histamine IC50
Procedure: (§1) The basophil activation assay was carried out using whole human peripheral blood from donors allergic to dust mites with the majority of the red blood cells removed by dextran sedimentation. Human peripheral blood was mixed 1:1 with 3% dextran T500 and RBCs were allowed to settle for 20-25min. The upper fraction was diluted with 3 volumes of D-PBS and cells were spun down for 10 min at 1500 rpm, RT. Supernatant was aspirated and cells were washed in an equal volume MT-buffer. Finally, cells were resuspended in MT-buffer containing 0.5% DMSO in the original blood volume. 80 uL cells were mixed with 20 uL compound in the presence of 0.5% DMSO, in triplicate, in a V-bottom 96-well tissue culture plate. A dose range of 8 compound concentrations was tested resulting in a 10-point dose response curve including maximum (stimulated) and minimum (unstimulated) response. […] The cells were stimulated for 30 minutes at 37° C., 5% CO2. The plate was spun for 10 min at 1500 rpm at room temperature and 80 uL the supernatant was harvested for histamine content analysis using the histamine ELISA kit supplied by Immunotech. The ELISA was performed according to supplier's instructions.

[6] = test system: basophil cells (human peripheral blood); experiment: Basophil ionomycin activation: histamine release assay; type: cell-based; conditions: basophils, ionomycin activation, histamine release; read-out: Basophils Ionomycin Histamine IC50
Procedure: as §1
Assays for ionomycin-induced basophil cell degranulation were carried out as described for the Basophil IgE or Dustmite Activation Assay (Section 7.5.5, supra), with the exception that following incubation with compound, cells were stimulated with 20 μl of 2 μM ionomycin.

[7] = test system: FcγRI-mediated degranulation; experiment: FcγRI-mediated degranulation (anti-human IgG Fab activation); type: cell-based; conditions: cells not primed with IgE, activated with rabbit anti-human IgG Fab fragment
Syk kinase = target: T1, Syk kinase (Homo sapiens, UniProt P43405); experiment: Syk kinase biochemical fluorescence polarization assay; conditions: isolated Syk kinase, fluorescence polarization, 4 uM ATP
T1 construct: purchased Upstate, Lake Placid NY

[8] = Mouse Reverse Passive Arthus reaction (RPA reaction); type: in vivo, C57BL/6 mice; conditions: oral, 100 mg/kg
Procedure: In this model system, test compounds are administered at several timepoints prior to administration of Abs and Ags. A solution of rabbit anti-OVA IgG (50 μg in 25 μl/mouse) is injected intradermally, and immediately following is an intravenous injection of chicken egg albumin (20 mg/kg of body weight) in a solution containing 1% Evans blue dye. The degree of edema and hemorrhage is measured in the dorsal skin of C57BL/6 mice using the Evan's Blue dye as an indicator of local tissue damage. Purified polyclonal rabbit IgG is used as a control.
Pretreatment time, in which the test compounds are administered prior to Ab/Ag challenge, depends on the pharmacokinetic (PK) properties of each individual compound. Four hours after induction of Arthus reaction, mice are euthanized, and tissues are harvested for assessment of edema.

Primary human B-cells = experiment: Primary B-cell activation (α-IgM, CD69 upregulation); type: cell-based; conditions: read-out: 1° B-Cell CD69 IC50
Procedure: Primary human B-cells were isolated from buffy coat, the white cell layer that forms between the red cells and the […] when anti-coagulated blood is centrifuged, or from fresh blood using CD19-Dynal® beads and a FACS. Buffy coat was obtained from the Stanford Medical School Blood Centre, prepared on the same day by the blood bank, stored and transported cold (with ice). The buffy coat (approx 35 mL) was placed in a 500 mL conical sterile centrifuge pot and cooled on ice, then diluted with cold PBS containing 0.2% BSA (Sigma: A7638) and sodium citrate (0.1%, Sigma: S-5570) (P—B—C) to a total volume of 200 mL and mixed gently. Fresh blood was collected from donors in 10 mL vacutainers containing heparin (1 vacutainer collects approximately 8.5 mL blood). The blood was cooled on ice, transferred into 50 mL falcon tubes (20 mL/tube) or a 500 mL conical sterile centrifuge pot, and diluted with an equal volume P—B—C.
25 mL diluted blood or buffy coat was layered onto 15 mL cold ficoll and placed back on ice. The ficoll layered blood was centrifuged (Beckman GS-6R) for 45 minutes at 2000 rpm, 4° C. to separate the Peripheral Blood Mononuclear Cells (PBMC) from the Red Blood Cells (RBC) and granulocytes. The top aqueous layer was then aspirated until 1 inch above the PBMC layer. The PBMCs were transferred from every 2 ficoll tubes into one clean 50 mL falcon tube (=approx 10 mL/tube). The transferred PBMCs were diluted 5× with icecold PBS with 0.2% BSA (P—B) and centrifuged for 20 min at 1400 rpm and 4° C. The supernatant (this may be cloudy) was then aspirated and the PBMCs resuspended into 25 mL P—B and the cells counted (using a 1:5 dilution) and kept on ice.
The cells were then positively selected using anti-CD 19 antibody coupled to magnetic beads (Dynal®) as per manufacturer's instructions. The approximate required amount of CD19-Dynal® beads (CD19-coated dyna beads M-450 (pabB), Dynal®) was calculated by estimating the number of B-cells as 5% of PBMCs counted and adding approximately10 beads per cell from the bead stock (4×10^8 beads/mL). The CD19-Dynal® beads were washed 2× in P—B in a 5 mL tube using the Dynal® magnet, then added into the suspended PBMCs. This mixture was then passed through the Dynal® magnet and washed several times to separate the bead-bound cells.
After separation, the beads and antibody were removed using Dynal® CD19-DETACHaBEAD® for 45 min at 30° C. Yield is typically 2×10^7 B-cells per buffy coat. B-cells were washed and resuspended as 1E6 cells/mL in RPMI1640+10% FBS+Penicillin/[…]+1 ng/mL IFNα8. Cells were rested overnight at 37° C. and 5% CO2.
The following day, cells were washed and resuspended in RPMI+2.5% FBS to 1×10^6 cells/mL. Cells were then aliquoted into a V-bottom 96-well plate (Corning) at 65 uL cells per well. By robot, 65 uL of a 2× compound was added to the cells with final concentration of DMSO at 0.2%, and incubated for 1 hr at 37° C. Cells were then stimulated with 20 uL 7.5× α-IgM from Jackson laboratories (final 5 ug/mL) for 24 hrs. At day 3, the cells were spun down and stained for CD69 and analyzed by FACS gated on the live cells (by light scatter).
Varied concentrations of compound were compared to solvent only to determine the inhibition of B-cell activation IC50 of each compound.

[9] = Low Density CHMC, anti-IgE activation, tryptase release, read-out: CHMC anti-IgE Tryptase IC50
[10] = Low Density CHMC, ionomycin activation, tryptase release, read-out: CHMC Ionomycin Tryptase IC50

SMILES | IC50 [1, 9] | IC50 [2] | IC50 [3, 10] | IC50 (Jurkat cells) | IC50 (B-cell line BJAB) | IC50 [4] | inhibition of FcγRI-mediated degranulation [7] | IC50 (Syk kinase) | other results
Oc1cccc(Nc2ncc(Br)c(Nc3cccc(O)c3)n2)c1 [Compound R925778] | 225 nM | 180 nM | > 10000 nM | > 10000 nM | > 10000 nM | 3400 nM |  |  | 
Oc1cccc(Nc2nc(Nc3ccc4c(c3)OCCO4)ncc2Br)c1 [Compound R925797] | 850 nM | 280 nM | > 10000 nM | > 10000 nM | > 10000 nM | 1510 nM |  |  | 
Fc1cnc(Nc2ccc3c(c2)OC(F)(F)C(F)(F)O3)nc1Nc1ccc2c(c1)OC(F)(F)C(F)(F)O2 [Compound R926037] |  |  |  |  |  | > 10000 nM |  |  | IC50 [5]: > 10000 nM; IC50 [6]: > 10000 nM
Cc1cnc(Nc2cccc(O)c2)nc1Nc1cccc(O)c1 [Compound R926248] | 900 nM | 760 nM | > 10000 nM | > 10000 nM | > 10000 nM | 1540 nM |  |  | 
Oc1cccc(Nc2ccnc(Nc3cccc(O)c3)n2)c1 [Compound R926249] | 500 nM | 250 nM | > 10000 nM | > 10000 nM | > 10000 nM | 954 nM |  |  | 
CC(=O)Oc1cccc(Nc2ncc(F)c(Nc3cccc(OC(C)=O)c3)n2)c1 [Compound R926387] | 650 nM | 700 nM | > 10000 nM | > 10000 nM | > 10000 nM | 3850 nM |  |  | 
Cc1cc(Nc2ncc(F)c(Nc3ccc4c(c3)NC(=O)C(F)(F)O4)n2)cc(Cl)c1O [Compound R926971] |  |  |  |  |  |  | inhibit FcγRI-mediated degranulation | 8 nM | IC50 ([1]; low cell density, read-out: CHMC anti-IgE Tryptase): 34 nM; IC50 ([3]; low cell density, read-out: CHMC Ionomycin Tryptase): > 10000 nM
Fc1cnc(Nc2ccc3cn[nH]c3c2)nc1Nc1ccc(Cl)c(Cl)c1 [Compound R935372] |  |  |  |  |  | 30700 nM | inhibit FcγRI-mediated degranulation | 205 nM | % inhibition to vehicle control Edema Size ± SEM ([8]; pretreatment time 0.5 hrs): −0.6 ± 6.2%; Plasma Concentration ± SEM (ng/ml) Exposure = Pretreatment Time + 4 hours ([8]; pretreatment time 0.5 hrs + 4 hours): 0.6 ± 1 ng/mL; % inhibition to vehicle control Edema Size ± SEM ([8]; pretreatment time 1 hrs): 23.5 ± 7.4%; Plasma Concentration ± SEM (ng/ml) Exposure = Pretreatment Time + 4 hours ([8]; pretreatment time 1 hrs + 4 hours): 4.2 ± 4 ng/mL; % inhibition to vehicle control Edema Size ± SEM ([8]; pretreatment time 2 hrs): −4.4 ± 17.7%; Plasma Concentration ± SEM (ng/ml) Exposure = Pretreatment Time + 4 hours ([8]; pretreatment time 2 hrs + 4 hours): 52.65 ± 39 ng/mL
O=C1Nc2cc(Nc3ncc(F)c(Nc4ccc5c(c4)NC(=O)C(F)(F)O5)n3)ccc2OC1(F)F [Compound R940352] |  |  |  |  |  | 3530 nM | inhibit FcγRI-mediated degranulation | 130 nM | IC50 (Primary human B-cells): 876 nM

Reference: US8158621B2, “Methods of treating or preventing autoimmune diseases with 2,4-pyrimidinediamine compounds” (Rigel Pharmaceuticals, Inc., priority 2002, dated 2012)
